Reference: ChEMBL document CHEMBL5356973 (J Med Chem, 2023)
Calls of active or inactive are those of the source. The calls are words filed in the database; no cut-off is given here.

Experiments:
Mu-type opioid receptor [1] = target: T1, Mu-type opioid receptor (Homo sapiens, UniProt P35372); assay: Agonist activity at MOR (unknown origin) transfected in CHO cells co-expressing Galphaq15 assessed as increase in calcium mobilization by Fluo-4AM dye based assay; assay type: functional, cell-based
Mu-type opioid receptor [2] = target: T1, Mu-type opioid receptor; assay: Agonist activity at MOR (unknown origin) transfected in CHO cells co-expressing Galphaq15 assessed as increase in calcium mobilization by measuring maximal efficacy by Fluo-4AM dye based assay relative to control; assay type: functional, cell-based; details: filed as agonist
[3] = target: T2, Kappa-type opioid receptor (Homo sapiens, UniProt P41145); assay: Agonist activity at KOR (unknown origin) transfected in CHO cells co-expressing Galphaq15 assessed as increase in calcium mobilization by Fluo-4AM dye based assay; assay type: functional, cell-based
T2 sequence (P41145 whole entry): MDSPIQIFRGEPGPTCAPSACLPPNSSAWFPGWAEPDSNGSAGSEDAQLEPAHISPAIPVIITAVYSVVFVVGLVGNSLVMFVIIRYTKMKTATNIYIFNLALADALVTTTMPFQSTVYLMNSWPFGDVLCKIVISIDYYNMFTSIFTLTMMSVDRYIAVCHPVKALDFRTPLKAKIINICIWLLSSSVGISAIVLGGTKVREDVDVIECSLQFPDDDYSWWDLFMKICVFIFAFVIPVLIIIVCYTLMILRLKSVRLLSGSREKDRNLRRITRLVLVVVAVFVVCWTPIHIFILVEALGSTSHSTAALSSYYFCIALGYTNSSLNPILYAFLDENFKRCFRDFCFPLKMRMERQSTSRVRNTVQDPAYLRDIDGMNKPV

[4] = target: T2, Kappa-type opioid receptor; assay: Agonist activity at KOR (unknown origin) transfected in CHO cells co-expressing Galphaq15 assessed as increase in calcium mobilization by measuring maximal efficacy by Fluo-4AM dye based assay relative to control; assay type: functional, cell-based; details: filed as agonist
[5] = target: T3, Delta-type opioid receptor (Homo sapiens, UniProt P41143); assay: Agonist activity at DOR (unknown origin) transfected in CHO cells co-expressing Galphaq15 assessed as increase in calcium mobilization by Fluo-4AM dye based assay; assay type: functional, cell-based
T3 sequence (P41143 whole entry): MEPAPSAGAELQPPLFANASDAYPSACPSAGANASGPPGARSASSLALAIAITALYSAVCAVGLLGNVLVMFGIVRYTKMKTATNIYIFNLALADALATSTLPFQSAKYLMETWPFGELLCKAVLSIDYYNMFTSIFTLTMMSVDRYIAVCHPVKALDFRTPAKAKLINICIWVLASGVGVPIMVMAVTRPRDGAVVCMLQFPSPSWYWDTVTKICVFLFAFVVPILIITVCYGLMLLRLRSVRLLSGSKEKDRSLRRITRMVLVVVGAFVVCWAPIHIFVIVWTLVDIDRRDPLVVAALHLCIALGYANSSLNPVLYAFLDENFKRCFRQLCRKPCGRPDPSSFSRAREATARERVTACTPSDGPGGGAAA

[6] = target: T3, Delta-type opioid receptor; assay: Agonist activity at DOR (unknown origin) transfected in CHO cells co-expressing Galphaq15 assessed as increase in calcium mobilization by measuring maximal efficacy by Fluo-4AM dye based assay relative to control; assay type: functional, cell-based; details: filed as agonist
[7] = Agonist activity at NPFF1R (unknown origin) transfected in CHO cells co-expressing Galphaq15 assessed as increase in calcium mobilization by measuring maximal efficacy by Fluo-4AM dye based assay relative to control; assay type: functional, cell-based; details: Homo sapiens, filed as agonist
[8] = target: T4, Neuropeptide FF receptor 2 (Homo sapiens, UniProt Q9Y5X5); assay: Agonist activity at NPFF2R (unknown origin) transfected in HEK293 cells co-expressing Galphaq15 assessed as increase in calcium mobilization by Fluo-4AM dye based assay; assay type: functional, cell-based
T4 sequence (Q9Y5X5 whole entry): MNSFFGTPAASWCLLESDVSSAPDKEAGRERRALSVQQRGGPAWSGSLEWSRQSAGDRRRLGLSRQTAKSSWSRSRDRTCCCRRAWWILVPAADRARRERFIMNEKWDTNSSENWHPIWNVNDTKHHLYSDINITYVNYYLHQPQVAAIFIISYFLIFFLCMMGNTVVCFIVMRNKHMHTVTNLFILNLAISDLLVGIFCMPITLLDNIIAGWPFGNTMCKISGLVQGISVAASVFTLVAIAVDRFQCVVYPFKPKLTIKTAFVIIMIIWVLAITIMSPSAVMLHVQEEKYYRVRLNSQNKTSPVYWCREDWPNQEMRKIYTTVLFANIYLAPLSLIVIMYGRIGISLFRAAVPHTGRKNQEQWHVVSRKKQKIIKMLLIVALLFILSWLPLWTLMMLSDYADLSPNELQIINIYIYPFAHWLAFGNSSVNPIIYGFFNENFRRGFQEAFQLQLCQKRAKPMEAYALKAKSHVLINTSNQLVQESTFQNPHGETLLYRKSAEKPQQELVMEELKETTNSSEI

[9] = target: T4, Neuropeptide FF receptor 2; assay: Agonist activity at NPFF2R (unknown origin) transfected in HEK293 cells co-expressing Galphaq15 assessed as increase in calcium mobilization by measuring maximal efficacy by Fluo-4AM dye based assay relative to control; assay type: functional, cell-based; details: filed as agonist
[10] = Metabolic stability in mouse plasma assessed as degradation half life at 10 mM measured upto 480 mins by RP-HPLC analysis; assay type: ADME, cell-free
[11] = Metabolic stability in mouse brain homogenate assessed as degradation half life at 10 mM measured upto 480 mins by RP-HPLC analysis; assay type: ADME, tissue-based
Mus musculus [12] = assay: Antinociceptive activity in Kunming mouse assessed as changes in tail flick latency by measuring maximal possible effect at 26.1 nmol/kg, sc measured after 20 mins by tail-flick test; assay type: functional
Mus musculus [13] = assay: Antinociceptive activity in Kunming mouse assessed as changes in tail flick latency by measuring maximal possible effect at 26.1 nmol/kg, sc measured after 30 mins by tail-flick test; assay type: functional; details: 0.5 h
Mus musculus [14] = assay: Antinociceptive activity in Kunming mouse assessed as changes in tail flick latency by measuring maximal possible effect at 26.1 nmol/kg, sc measured after 60 mins by tail-flick test; assay type: functional; details: 1 h
Mus musculus [15] = assay: Antinociceptive activity in Kunming mouse assessed as changes in tail flick latency by measuring maximal possible effect at 26.1 nmol/kg, sc measured after 120 mins by tail-flick test; assay type: functional; details: 2 h
Mus musculus [16] = assay: Antinociceptive activity in Kunming mouse assessed as changes in tail flick latency by measuring maximal possible effect at 26.1 nmol/kg, sc measured after 240 mins by tail-flick test; assay type: functional; details: 4 h
Mus musculus [17] = assay: Antinociceptive activity in Kunming mouse assessed as changes in tail flick latency by measuring time duration of antinociceptive effect at 26.1 nmol/kg, sc by tail-flick test; assay type: functional
Mus musculus [18] = assay: Antinociceptive activity in Kunming mouse assessed as changes in tail flick latency at 26.1 nmol/kg, sc pretreated with naloxone methiodide at 5 nmol, icv for 10 mins followed by compound addition and measured for 360 mins by tail-flick test; assay type: functional, organism-based
Mus musculus [19] = assay: Antinociceptive activity in Kunming mouse assessed as changes in tail flick latency by measuring maximal possible effect at 8.8 nmol/kg, sc measured after 20 mins by tail-flick test; assay type: functional
Mus musculus [20] = assay: Antinociceptive activity in Kunming mouse assessed as changes in tail flick latency by measuring maximal possible effect at 8.8 nmol/kg, sc measured after 30 mins by tail-flick test; assay type: functional; details: 0.5 h
Mus musculus [21] = assay: Antinociceptive activity in Kunming mouse assessed as changes in tail flick latency by measuring maximal possible effect at 8.8 nmol/kg, sc measured after 60 mins by tail-flick test; assay type: functional; details: 1 h
Mus musculus [22] = assay: Antinociceptive activity in Kunming mouse assessed as changes in tail flick latency by measuring maximal possible effect at 8.8 nmol/kg, sc measured after 120 mins by tail-flick test; assay type: functional; details: 2 h
Mus musculus [23] = assay: Antinociceptive activity in Kunming mouse assessed as changes in tail flick latency by measuring maximal possible effect at 8.8 nmol/kg, sc measured after 240 mins by tail-flick test; assay type: functional; details: 4 h
Mus musculus [24] = assay: Antinociceptive activity in Kunming mouse assessed as changes in tail flick latency by measuring time duration of antinociceptive effect at 8.8 nmol/kg, sc by tail-flick test; assay type: functional
Mus musculus [25] = assay: Antinociceptive activity in Kunming mouse assessed as changes in tail flick latency at 8.8 nmol/kg, sc pretreated with naloxone methiodide at 5 nmol, icv for 10 mins followed by compound addition and measured for 360 mins by tail-flick test; assay type: functional, organism-based

T1 sequence (P35372 whole entry): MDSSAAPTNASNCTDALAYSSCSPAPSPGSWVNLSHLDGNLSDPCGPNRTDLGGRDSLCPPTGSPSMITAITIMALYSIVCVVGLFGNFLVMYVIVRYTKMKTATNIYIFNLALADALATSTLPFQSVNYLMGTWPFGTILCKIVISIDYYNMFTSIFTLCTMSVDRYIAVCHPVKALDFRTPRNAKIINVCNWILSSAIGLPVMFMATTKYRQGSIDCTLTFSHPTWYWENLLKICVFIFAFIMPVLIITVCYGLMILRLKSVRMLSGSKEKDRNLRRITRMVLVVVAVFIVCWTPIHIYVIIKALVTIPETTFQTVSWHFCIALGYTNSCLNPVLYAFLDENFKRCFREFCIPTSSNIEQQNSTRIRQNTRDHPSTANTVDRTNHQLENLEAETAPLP

Compound	EC50 (Mu-type opioid receptor [1]) [µM]	Emax (Mu-type opioid receptor [2]) [%]	EC50 [3] [µM]	Emax [4] [%]	EC50 [5] [µM]	Emax [6] [%]	Emax [7] [%]	EC50 [8] [µM]	Emax [9] [%]	half-life at 10000 µM [10] [h]	half-life at 10000 µM [11] [h]	MPE (Mus musculus [12]) [%]	MPE (Mus musculus [13]) [%]	MPE (Mus musculus [14]) [%]	MPE (Mus musculus [15]) [%]	MPE (Mus musculus [16]) [%]	Time (Mus musculus [17]) [min]	Activity (Mus musculus [18])	MPE (Mus musculus [19]) [%]	MPE (Mus musculus [20]) [%]	further results
CN1C(=O)CNC(=O)[C@H](N[C@@H](Cc2ccc(O)cc2)C(=O)O)CCCC/C=C\CC[C@@H](C(=O)N2CCC[C@H]2C(=O)N[C@@H](CCC(N)=O)C(=O)N[C@@H](CCCNC(=N)N)C(=O)N[C@@H](Cc2ccccc2)C(N)=O)NC(=O)[C@@H]1Cc1ccccc1	0.0923	109	0.503	128	0.0582	97.5	105	1.08	88.6	0.625	1.95	93	93.7	77.4	73.5	36	360	inactive			
CC(C)C[C@H](NC(=O)[C@@H](N)Cc1ccccc1)C(=O)N[C@@H](Cc1ccccc1)C(=O)N[C@@H](CCC(N)=O)C(=O)N1CCC[C@H]1C(=O)N[C@@H](CCC(N)=O)C(=O)N[C@@H](CCCN=C(N)N)C(=O)N[C@@H](Cc1ccccc1)C(N)=O							97.9														
CN1C(=O)CNC(=O)[C@@H](N[C@@H](Cc2ccc(O)cc2)C(=O)O)C/C=C/CCCC[C@H](C(=O)N2CCC[C@H]2C(=O)N[C@@H](CCC(N)=O)C(=O)N[C@@H](CCCNC(=N)N)C(=O)N[C@@H](Cc2ccccc2)C(N)=O)NC(=O)[C@@H]1Cc1ccccc1	2.9	81	1.23	56.1	8.92	99.4	124	3.76	40.9	0.13	1.47								92.8	93.6	MPE (Mus musculus [21]): 79%; MPE (Mus musculus [22]): 71.5%; MPE (Mus musculus [23]): 41.6%; Time (Mus musculus [24]): 360 min; Activity (Mus musculus [25]): inactive
CN1C(=O)CNC(=O)[C@H](N[C@@H](Cc2ccc(O)cc2)C(=O)O)CCCC/C=C/CC[C@@H](C(=O)N2CCC[C@H]2C(=O)N[C@@H](CCC(N)=O)C(=O)N[C@@H](CCCNC(=N)N)C(=O)N[C@@H](Cc2ccccc2)C(N)=O)NC(=O)[C@@H]1Cc1ccccc1	0.0012	84.6	0.132	100	0.0134	73.8	91.9	9.77	125	1.01	2.26	91.9	92.1	80.3	69	42.3	360	inactive			
CN1C(=O)CNC(=O)[C@H](N[C@@H](Cc2ccc(O)cc2)C(=O)O)CCC/C=C/CC[C@@H](C(=O)N2CCC[C@H]2C(=O)N[C@@H](CCC(N)=O)C(=O)N[C@@H](CCCNC(=N)N)C(=O)N[C@@H](Cc2ccccc2)C(N)=O)NC(=O)[C@@H]1Cc1ccccc1	0.0076	102	0.273	96.4	0.0239	98.2	91.8	3.11	118	0.537	1.83								89.9	96.5	MPE (Mus musculus [21]): 72.1%; MPE (Mus musculus [22]): 74.2%; MPE (Mus musculus [23]): 47.8%; Time (Mus musculus [24]): 360 min; Activity (Mus musculus [25]): inactive
